From PMC1764434 (PLoS Clinical Trials, 2007)
“Also recorded” adds a separate entry of the source. Like-named read-outs stand apart in the source and are kept apart here.

Legend:
[1] = test system: healthy volunteers; test: Clinical adverse events (weekly diaries, blinded relatedness assessment), Phase I RCT; format: in vivo, human
Protocol: Adverse events (AEs) were recorded in weekly diaries provided to each volunteer. The relatedness of these AEs to the study drugs was assessed by two physicians (FM, CH) based on temporal association and biological plausibility using five categories: definitely not, unlikely, possibly, probably, and definitely related. The AEs reported in this manuscript include all AEs assessed as possibly, probably, or definitely related.
Quantitative data are presented as the mean ± standard deviation or as median and range, as appropriate. […] Due to a lack of normality, the nonparametric Mann-Whitney U test was used to compare independent samples; the Wilcoxon or Friedman test (whichever was appropriate) was used to compare repeated measures of the QTc interval. All statistical tests were two-sided with an α (significance level) of 0.05. Analyses were performed using the SPSS 11.0 statistical software (SPSS, Chicago, Illinois, United States). All analyses were based on allocation by intent-to-treat.

[2] = Blood pharmacokinetics after oral dosing (fluorescence HPLC, noncompartmental WinNonlin model); format: in vivo, human; details: for Cmax / Vd/F / MRT / Tmax / half-life / AUC: human, whole blood; for Cmax: read-out: Cmax; for MRT: read-out: MRT (converted); for AUC: po
Protocol: Study drugs were administered in the GCRC on an empty stomach between 8 and 9 AM the morning after admission (after fasting for ≥ 10 h).

[3] = test system: healthy volunteers; test: Post-dose clinical and laboratory follow-up (hematology, chemistry, organ toxicity); format: in vivo, human
[4] = test system: CQ-resistant P. falciparum; details: cited from earlier work
[5] = test system: P. cynomolgi; details: cited from earlier work
[6] = test system: CQ-resistant P. falciparum; details: CQ-resistant P. falciparum in the squirrel monkey; cited from earlier work
[7] = test system: animals; details: preclinical studies; cited from earlier work
[8] = cited from earlier work
[9] = test system: QT interval; test: Effects on the QT interval (ECG and Holter recordings, Bazett correction); details: for QTc interval, Baseline: before dosing
Protocol: The effects of the study drugs on the QT interval were assessed by comparing QT intervals before dosing with QT intervals 4 h after dosing, and at the 2 wk follow-up. […] QT intervals were measured manually and electronically (Rozinn Electronics, Glendale, New York, United States). […] Correction of the QT interval for heart rate (i.e., QTc) was performed using Bazett's formula [27].

[10] = Urinary excretion and renal clearance (24-hour urine collections, days 1-3)
[11] = 1,500 mg CQ (n = 15) / 1,750 mg AQ-13 (n = 14)
[12] = 100, 300 mg doses, n = 16 per drug
[13] = 600/700 mg, AQ-13 n = 25, CQ n = 24
[14] = all doses combined, 63 volunteers per drug
[15] = 1750 mg, 1,750 mg oral over 3 d, median (range)
[16] = single oral 600 mg dose, median (range)
[17] = single oral 700 mg adjustment dose, median (range)
[18] = 2 wk follow-up, individual participant
[19] = 1,750 mg AQ-13, 1,500 mg CQ, mean ± SD
[20] = 600/700 mg AQ-13, 600 mg CQ, mean ± SD
[21] = days 1-3, 1,750 mg AQ-13 / 1,500 mg CQ

SMILES: CCN(CC)CCCNc1ccnc2cc(Cl)ccc12 [AQ-13]
- related adverse events: None ([1]; 10 mg dose, n = 8 per drug): 0
- Abdominal pain, number (%) [1, 11]: 1 (7%)
- Blurred vision, number (%) [1, 11]: 2 (14%)
- Diarrhea, number (%) [1, 11]: 4 (29%)
- Difficulty focusing/visual floating objects, number (%) [1, 11]: 2 (14%)
- Lightheadedness/Dizziness, number (%) [1, 11]: 7 (50%)
- Nausea, number (%) [1, 11]: 5 (36%)
- Vomiting, number (%) [1, 11]: 2 (14%)
- Weakness/fatigue, number (%) [1, 11]: 2 (14%)
- Headache, number (%) ([1]; 1,500 mg CQ (n = 15) / 1,750 mg AQ-13 (n = 14) over 3 d): 5 (36%)
- Headache, volunteers with related AE, number (%) [1, 12]: 2 (12%)
- Lightheadedness/Dizziness, number (%) [1, 12]: 0
- Nausea, number (%) [1, 12]: 1 (6%)
- Abdominal pain, number (%) [1, 13]: 2 (8%)
- Diarrhea, number (%) [1, 13]: 2 (8%)
- Ear symptoms, number (%) [1, 13]: 0
- Headache, number (%) [1, 13]: 10 (40%)
- Lightheadedness/Dizziness, number (%) [1, 13]: 4 (16%)
- Loss of appetite, number (%) [1, 13]: 3 (12%)
- Nausea, number (%) [1, 13]: 2 (8%)
- Vomiting, number (%) [1, 13]: 2 (8%)
- drug-related GI symptoms, number of reports ([1]; all doses combined): 28 reports
- drug-related lightheadedness/dizziness, volunteers/total [1, 14]: 11/63
- volunteers reporting one or more GI symptoms/total [1, 14]: 14/63
- blood level one hour after dosing as % of Cmax ([2]; 600 mg oral dose): 52%
- Cl/F ([2]; 1,750 mg oral over 3 d, median (range)): 14.0 (6.8–20.3) l/h
- median oral clearance (range of medians across dose levels) ([2]; 600 and 1,500/1,750 mg doses): 14.0 to 14.7 L/h
- Cmax ([2]; 1750 mg, 1,750 mg oral over 3 d (700+700+350 mg), median (range)): 3000 nM
- Vd/F [2, 15]: 6660 L
- MRT [2, 15]: 13.4 days
- Tmax ([2]; 1750 mg, 1,750 mg oral over 3 d, median (range), read-out: Tmax): 27.4 h
- half-life ([2]; 1750 mg, 1,750 mg oral over 3 d, median (range), read-out: t½ (converted)): 12.9 days
- Tmax ([2]; oral, 1,750 mg AQ-13 / 1,500 mg CQ, 27–28 h after the first dose, read-out: time of peak blood concentration after the second dose): 3 to 4 h
- AUC ([2]; 600 mg, single oral 600 mg dose, median (range), read-out: AUCw1 (partial AUC for week 1)): 71.8 µM·h
- AUC ([2]; 600 mg, single oral 600 mg dose, median (range), read-out: AUCτ (total area under the curve)): 141 µM·h
- AUC ([2]; 700 mg, single oral 700 mg adjustment dose, median (range), read-out: AUCw1): 96.3 µM·h
- AUC ([2]; 700 mg, single oral 700 mg adjustment dose, median (range), read-out: AUCτ): 342 µM·h
- AUC ([2]; 1750 mg, 1,750 mg oral over 3 d, median (range), read-out: AUCw1): 226 µM·h
- AUC ([2]; 1750 mg, 1,750 mg oral over 3 d, median (range), read-out: AUCτ): 493 µM·h
- Vd/F [2, 16]: 6710 L
- Vd/F [2, 17]: 6830 L
- MRT [2, 17]: 23.5 days
- Tmax ([2]; single oral 700 mg adjustment dose, median (range), read-out: Tmax): 4 h
- half-life ([2]; single oral 700 mg adjustment dose, median (range), read-out: t½ (converted)): 17.9 days
- Cmax ([2]; single oral 600 mg dose (CQ base equivalent), median (range)): 1400 nM
- MRT [2, 16]: 10.5 days
- Tmax ([2]; single oral 600 mg dose, median (range), read-out: Tmax): 4 h
- half-life ([2]; single oral 600 mg dose, median (range), read-out: t½ (terminal elimination half-life) (converted)): 14.3 days
- Cmax [2, 17]: 1600 nM
- linearity of pharmacokinetics ([2]; oral doses in healthy volunteers): linear pharmacokinetics
- Cl/F (apparent oral clearance) [2, 16]: 14.7 (7.0–31.1) l/h
- Cl/F [2, 17]: 11.8 (8.5–19.1) l/h
- ALT in one participant with abnormal liver function tests [3, 18]: 149
- AST in one participant with abnormal liver function tests [3, 18]: 135 U/l
- alkaline phosphatase in one participant with abnormal liver function tests [3, 18]: 146
- bilirubin in one participant with abnormal liver function test [3, 18]: 1.5 mg/dL
- volunteers with mildly abnormal liver function tests ([3]; 2 wk follow-up, AQ-13 100 and 300 mg doses, CQ 1,500 mg dose): two
- hematologic or chemical toxicities on repeat laboratory testing ([3]; 4 d after drug administration): no hematologic or chemical toxicities
- organ toxicity ([3]; any dose tested, inpatient exams, 2 and 4 wk follow-up): No hematologic, hepatic, renal, or other organ toxicity was observed; also recorded: no clinical evidence for end-organ toxicity
- activity against resistant malaria parasites in vitro [4]: active against resistant malaria parasites
- activity in vivo in monkey model ([5]; P. cynomolgi in the rhesus monkey): active in vivo
- activity in monkey models of human malaria compared with AQ-21 ([5]; both monkey models, ref Cogswell, et al., unpublished data): more active
- activity in vivo in monkey model [6]: active in vivo
- toxicity in animals in comparison with CQ [7]: no differences in toxicity
- clearance in preclinical studies in comparison with CQ [8]: cleared more rapidly than CQ
- oral bioavailability in comparison with CQ ([8]; rats and monkeys, GLP preclinical studies by SRI International): less than that of CQ
- mean QTc prolongation after the first dose (day 1) ([9]; 1,500 mg CQ (first 600 mg dose) / 1,750 mg AQ-13 (first 700 mg dose)): 4 ms
- additional QTc increase after the second dose (day 2) ([9]; 1,500 mg CQ / 1,750 mg AQ-13): 6 ms
- QTc interval, Baseline ([9]; 1,750 mg AQ-13 (n = 13), 1,500 mg CQ (n = 14), mean ± SD): 397 ± 16 ms
- QTc interval, 2 wk follow-up [9, 19]: 402 ± 13 ms
- QTc interval, 4–5 h post-dose (day 1) [9, 19]: 401 ± 14 ms
- QTc interval, 4–5 h post-dose (day 2) [9, 19]: 407 ± 11 ms
- QTc interval, 4–5 h post-dose (day 3) [9, 19]: 400 ± 11 ms
- mean QTc prolongation, females ([9]; 1,750 mg AQ-13 / 1,500 mg CQ): 12 ms
- mean increase in the QTc interval from baseline ([9]; 1,750 mg AQ-13 / 1,500 mg CQ, 4 h after the second dose on day 2): 10 ms
- QTc interval, Baseline ([9]; 600/700 mg AQ-13 (n = 25), 600 mg CQ (n = 24), mean ± SD): 403 ± 17 ms
- QTc interval, 2 wk follow-up [9, 20]: 405 ± 18 ms
- QTc interval, 4–5 h post-dose (day 1) [9, 20]: 414 ± 17 ms
- maximal prolongation of the QTc interval from baseline at the individual level ([9]; 600/700 mg dose): 42 ms
- maximal prolongation of the QTc interval from baseline at the individual level ([9]; 1,500/1,750 mg dose): 35 ms
- mean increase in the QTc interval from baseline, females ([9]; 4 h after 600 mg CQ or 600/700 mg AQ-13): 18 ms
- mean QTc interval change from baseline, males ([9]; 4 h after 600 mg CQ or 600/700 mg AQ-13, not significant): 1 ms
- mean increase in the QTc interval from baseline ([9]; 4 h after 600 mg CQ or 600 or 700 mg AQ-13): 11 ms
- arrhythmias or other cardiac AEs ([9]; all doses): no arrhythmias or other cardiac AEs; also recorded: no cardiac AEs
- amount of unchanged drug recovered from 24 hour urine collections [10, 21]: 443 µmol
- unchanged drug recovered from 24 hour urine collections, % of total oral dose [10, 21]: 8.4%
- CL renal ([10]; human, urine and whole blood, po, 1750 mg): 55 mL/min
